Data taken from patent publication US6989390B2, “Amonafide salts” (priority 2002, dated 2006).

Columns and labels:
[1] = system: PC3 (Prostate); experiment: Hollow Fiber in vivo anti-cancer assay; set-up: species or system mice; details: for % Growth Inhibition: 29.4 mg/kg i.p. once daily days 3-8
Protocol: (§1) The in vivo activity was tested using the Hollow Fiber methodology developed by the National Cancer Institute: Developmental Therapeutics Branch for use in their antineoplastic agent screening program. Specifically, the anti-cancer activity of amonafide L-malate was tested by the following protocol.
(§2) Polyvinylidene fluoride (PVDF) hollow fibers were used. The fibers were individually flushed and filled with 70% ethanol and incubated in 70% ethanol at room temperature for a minimum of 96 hour. Following three washes with deionized water, the fibers were filled with and placed into a pan of deionized water for sterilization by autoclaving. Then the fibers were stored in water at 4° C. until used.
(§3) Mice were grouped into 4 groups, two control groups with 6 mice per group and 2 experimental groups with 3 mice per group.
(§4) Anesthesia was induced in mice by ketamine/acepromazine/xylazine injected intraperitoneally (i.p.) For the intraperitoneal (i.p.) implants, a small incision was made through the skin and musculature of the dorsal abdominal wall, the fiber samples were inserted into the peritoneal cavity in a craniocaudal direction and the incision was closed with a skin staple. For subcutaneous (s.c.) implants, a small skin incision was made at the nape of the neck to allow insertion of an 11 gauge tumor implant trocar. The trocar, containing the hollow fiber samples, was inserted caudally through the subcutaneous tissues and the fibers were deposited during withdrawal of the trocar. The skin incision was closed with a skin staple. Each mouse was host of 6 samples, representing 3 tumor cells lines each of which was cultured in the 2 physiologic compartments (i.p. and s.c.).
(§5) On the day following the last drug injection, the animals were sacrificed and the hollow fibers extracted. The hollow fibers were then subjected to the stable endpoint MTT assay as described in Example 5. The optical density of each sample is determined spectrophotometrically at 540 nm and the mean of each treatment group is calculated. The percent net growth for each cell line in each treatment group is calculated as described in Example 5 and compared to the percent net growth in the vehicle treated controls (Group B) using the formula below to determine the percent growth inhibition:
(§6) % growth inhibition=(Net GrowthControl−Net GrowthTreated)/Net GrowthControl)*100

[2] = system: MDA-231 (Breast); experiment: Hollow Fiber in vivo anti-cancer assay; set-up: species or system mice
Protocol: as §1, §2, §3, §4, §5, §6

[3] = system: COLO205 (Colorectal); experiment: Hollow Fiber in vivo anti-cancer assay; set-up: species or system mice
Protocol: as §1, §2, §3, §4, §5, §6

[4] = system: MCF-7 (Breast); experiment: Hollow Fiber in vivo anti-cancer assay; set-up: species or system mice
Protocol: as §1, §2, §3, §4, §5, §6

[5] = system: H23 (Lung); experiment: Hollow Fiber in vivo anti-cancer assay; set-up: species or system mice
Protocol: as §1, §2, §3, §4, §5, §6

[6] = Daily body weight and general health monitoring during the hollow fiber study; type: in vivo; details: mice, monitored daily for 6 days, i.p. dosing
Protocol: Individual mouse body weights were recorded daily and animals were monitored daily for general health for 6 days.

## CN(C)CCN1C(=O)c2cccc3cc(N)cc(c23)C1=O.O=C(O)C[C@H](O)C(=O)O [Amonafide Malate]
[1]; PC3, IP
  % Growth Inhibition: 71.6%
[1]; PC3, SC
  % Growth Inhibition: 52.9%
[1]; PC-3 (prostate)
  percent growth inhibition (text summary of Tables 6-8): Significant percent growth inhibition
[2]; MDA-231, I.P. fibers, 15 mg/kg i.p. twice-daily
  % Growth Inhibition: 93%
[2]; MDA-231, I.P. fibers, 29 mg/kg i.p. twice-daily
  % Growth Inhibition: 108%
[2]; MDA-231, S.C. fibers, 15 mg/kg i.p. twice-daily
  % Growth Inhibition: 79%
[2]; MDA-231, S.C. fibers, 29 mg/kg i.p. twice-daily
  % Growth Inhibition: 113%
[2]; MDA-231, above 100% indicates lethality for cancerous cells
  percent growth inhibition (text summary of Tables 6-8): above 100%
[3]; COLO205 (colorectal cancer)
  percent growth inhibition (text summary of Tables 6-8): Significant percent growth inhibition
[3]; COLO205, I.P. fibers, 15 mg/kg i.p. twice-daily
  % Growth Inhibition: 82%
[3]; COLO205, I.P. fibers, 29 mg/kg i.p. twice-daily
  % Growth Inhibition: 98%
[3]; COLO205, IP, 29.4 mg/kg i.p. once daily days 3-8
  % Growth Inhibition: 84.6%
[3]; COLO205, S.C. fibers, 15 mg/kg i.p. twice-daily
  % Growth Inhibition: 50%
[3]; COLO205, S.C. fibers, 29 mg/kg i.p. twice-daily
  % Growth Inhibition: 76%
[3]; COLO205, SC, 29.4 mg/kg i.p. once daily days 3-8
  % Growth Inhibition: 80.4%
[4]; MCF-7, I.P. fibers, 15 mg/kg i.p. twice-daily
  % Growth Inhibition: 97%
[4]; MCF-7, I.P. fibers, 29 mg/kg i.p. twice-daily
  % Growth Inhibition: 124%
[4]; MCF-7, IP, 29.4 mg/kg i.p. once daily days 3-8
  % Growth Inhibition: 150.2%
[4]; MCF-7, S.C. fibers, 15 mg/kg i.p. twice-daily
  % Growth Inhibition: 83%
[4]; MCF-7, S.C. fibers, 29 mg/kg i.p. twice-daily
  % Growth Inhibition: 107%
[4]; MCF-7, SC, 29.4 mg/kg i.p. once daily days 3-8
  % Growth Inhibition: 116.1%
[4]; MCF-7, above 100% indicates lethality for cancerous cells
  percent growth inhibition (text summary of Tables 6-8): above 100%
[5]; H23, I.P. fibers, 15 mg/kg i.p. twice-daily
  % Growth Inhibition: 36%
[5]; H23, I.P. fibers, 29 mg/kg i.p. twice-daily
  % Growth Inhibition: 47%
[5]; H23, S.C. fibers, 15 mg/kg i.p. twice-daily
  % Growth Inhibition: 13%
[5]; H23, S.C. fibers, 29 mg/kg i.p. twice-daily
  % Growth Inhibition: 27%
[6]
  premature sacrifice for body weight loss of greater than 20% or other signs of toxicity: not necessary to sacrifice any animals
